Test results: US10933114B2, “Nutritional supplements containing a peptide component and uses thereof” (Mead Johnson Nutrition Company, priority 2014, dated 2021)

Columns and labels:
Assay type in all cases: in vivo
LDLr knockout mice [1] = assay: Fasting plasma cholesterol and triglycerides (Examples 1 and 2)
Experimental: (§1) At t=0 mice were matched into experimental groups based on blood glucose (primary matching parameter) and body weight (secondary matching parameter). The control group received a lard based high fat diet (HFD 45 kcal % from lard; diet D12451 Research Diets, New Brunswick, USA) containing 23.7% w/w protein, 41.4% w/w carbohydrates and 23.6% w/w fat.
(§2) Blood samples were takes in week 0, 3, 6, 9, 15 and 21 after 5 hours of fasting. Blood glucose was measured using hand-held glucometer immediately. Plasma cholesterol and plasma triglyceride levels were assayed immediately in fresh EDTA-plasma. The remainder of the plasma was stored at −80° C. for analysis of insulin and ALAT, and for possible other additional follow-up analysis. Faecal samples were collected over a 48 hour period at cage level in week 0, 9, and 21. Additionally, individual faecal samples were collected in week 21 to allow individual faecal analysis. Total body fat and lean body mass were assessed non-invasively by EchoMR1 in week 0, 9, 15, and 21. Mice were placed in a constraint tube which was then inserted into the EchoMR1 for a period of approximately 30 seconds. During that time, total body fat and lean body mass were calculated and recorded and the mouse was removed from the apparatus.
(§3) Blood glucose was measured immediately using a hand-held glucometer. Total plasma cholesterol and triglyceride levels were measured using kits No. 11489437 and 11488872 (Roche Diagnostics, Almere, The Netherlands), respectively. The plasma levels of insulin (Ultrasensitive mouse insulin ELISA, Merdocia, Uppsala, Sweden) were determined by ELISA.
(§4) Example 2 describes the experimental procedures for evaluating metabolic, and cardiovascular risk factors in LDLr knockout mice fed a HFD supplemented with a >500 Da peptide fraction of the Peptide component. The same experimental procedures and methodologies as employed in Example 1 were used in Example 2.

LDLr knockout mice [2] = assay: Body composition analysis by EchoMRI (Examples 1 and 2); conditions: absolute values
Experimental: as §2, §4

LDLr knockout mice [3] = assay: Fasting blood glucose, plasma insulin and HOMA-IR (Examples 1 and 2)
Experimental: as §1
as §2, with “Additionally, individual faecal samples were collected in week 21 to allow individual faecal analysis.” left out, “Mice were placed in a constraint tube which was then inserted into the EchoMR1 for a period of approximately 30 seconds.” left out
as §3, with “ELISA. […]” for “ELISA.”

LDLr knockout mice [4] = assay: Body weight and food intake in LDLr knockout mice on high fat diet, 21 weeks (Examples 1 and 2, Study 2)
Description: Both the high fat diet and the tested diets with the peptide component, LCPUFA, and LGG were isocaloric. A control diet (low fat, 10% kcal by fat) served as a reference group. The first study, indicated as Study 1 in Table 3 below, compared the mice on the high fat diet, to mice on a high fat diet supplemented with a combination of the peptide component, LCPUFA, and LGG. Whereas, the second study, indicated as Study 2 in Table 3 below, examined the effects on the mice of the individual ingredients.
Example 1 describes the experimental procedures for evaluating metabolic, and cardiovascular risk factors in LDLr knockout mice fed and HFD and supplemented with a peptide component, LCPUFA, and LGG.
The mice used were LDLr knockout mice, which phenotypically express the main risk factors that are characteristic for metabolic syndrome and that are hallmarks of human disease. Experiments were performed to conform to the rules and regulations set forward by the Netherlands Law on Animal Experiments and were approved by a Committee on Animal Experiments (DEC; approval number 3486).
Sixty-seven male LDLr−/− mice (11-18 weeks of age at the start of the experiment) obtained from the breeding facility at TNO were used. […]

LDLr knockout mice [5] = assay: Liver function marker ALAT in pooled plasma (Examples 1 and 2)
Experimental: as §2
ALAT levels were measured at baseline, week 9 and week 21 in pooled plasma. Baseline levels were low (11 U/L). Upon HFD feeding, ALAT levels increased to 58 U/L in week 9 and further increased to 187 U/L in week 21 in the HFD group. For comparison, ALAT levels in chow fed mice reached levels of approximately 52 U/L in week 21 (data from other study). […] Also ALAT level in LGG treated mice were lower compared to HFD (66 U/L in week 9 and 124 U/L in week 21). […]

LDLr knockout mice [6] = assay: Tissue weights at sacrifice, week 21 (Examples 1 and 2); conditions: sacrifice after 21 weeks
Experimental: The mice were sacrificed (un-fasted) in week 21. After sacrifice, the following samples were isolated: • Serum Sample by heart puncture • Heart including aortic root (for atherosclerosis analysis) • Aortic arch (thoracic) in −80° C. • Total liver weight, 2 pieces of sinister and caudate lobe in −80° C., medial lobe formalin • Adipose tissue • Sub cutaneous (inguinal): weight, right in −80° C., left in formalin • Epididymal: weight, right in −80° C., left in formalin • Visceral (omental): weight, part in −80° C., part in formalin • Brown adipose tissue weight part in −80° C., part in formalin • Pancreas in −80° C. • Spleen (in formalin) • Kidneys (right in −80° C., left in formalin) • Ileum (last 8 cm before caecum) in −80° C. • Colon (including faeces) in −80° C. • Eyes: left in Davidson formalin, right in −80° C. • Brain (right in −80° C., left in 4% paraformaldehyde
After 21 weeks of dietary treatment, the mice were sacrificed. Tissues were isolated and weighed.
as §4

## Lactobacillus rhamnosus GG [LGG]
LDLr knockout mice [1]; NHLL week 9 until week 21, Peptide component all time points
  Plasma triglycerides compared to HFD control: slightly, but not significantly lower compared with HFD control
LDLr knockout mice [1]; throughout the study
  Plasma cholesterol compared to other groups: no significant effects on plasma cholesterol
LDLr knockout mice [1]; week 21
  Plasma triglycerides: 2.0 ± 1.0 mM
LDLr knockout mice [2]
  Total body fat compared to HFD: No effects on total body fat
LDLr knockout mice [3]; t=9 weeks, temporary drop in HFD control absent in these groups
  Fasting blood glucose, difference to HFD control: significant differences
LDLr knockout mice [3]; week 21 (NHLL, Peptide component), time not stated for LCPUFA, LGG
  Fasting plasma insulin compared to HFD control: comparable to the HFD control group
LDLr knockout mice [4]; after 21 weeks
  Body weight compared to HFD: slightly, but not significantly lower compared to HFD
LDLr knockout mice [4]; after 21 weeks of HFD feeding
  Body weight: 45.8 ± 5.3 g
LDLr knockout mice [5]; week 9, pooled plasma
  ALAT: 66 U/L
LDLr knockout mice [5]; week 21, pooled plasma
  ALAT: 124 U/L
LDLr knockout mice [6]
  Liver weight compared to HFD: tended to be lower compared to the HFD
LDLr knockout mice [6]; three depots
  Adipose tissue weights compared to HFD: comparable to HFD
